US7442240B2, “Alkoxylpropylisothiazolinone and preparation method and use thereof” (Ocean University of China, priority 2004, dated 2008)

Assays:
saccharomyces cerevisiae = assay: lowest bacteriostasis concentration, tube double dilution method; assay type: cell-based; conditions: 24 hours, 37° C.
Description: (§1) The lowest bacteriostasis concentration of the six kinds of the alkoxylpropylisothiazolinone of the present invention is measured through the tube double dilution method. In a Φ18×180 mm tube, 5 ml aseptic culture medium was added, then 50 μl bacteria suspended liquid of coliform was injected to prepare culture solution of beef extract peptone having bacteria concentration of 10^7 cfu/ml, then 50 μl tetrahydrofuran solution containing 4,5-dichloro-2-isopropoxypropyl-4-isothiazolin-3-one with the concentration of 2 μg/ml, 4 μg/ml, 8 μg/ml, 16 μg/ml, 32 μg/ml were added respectively. After cultured for 24 hours under a constant temperature of 37° C., the lowest bacteriostasis concentration of 4,5-dichloro-2-isopropoxypropyl-4-isothiazolin-3-one against coliform bacteria was measured. The result is 8 μg/ml (the cfu is a colong forming unit, 1 cfu refer to one single colong formed on the agar plate after being cultured).
(§2) When the coliform bacteria of the present invention is replaced with saccharomyces cerevisiae or staphylococcus aureus, and the 4,5-dichloro-2-isopropoxypropyl-4-isothiazolin-3-one is replaced with 4,5-dichloro-2-methoxy-propyl-4-isothiazolin-3-one, 4,5-dichloro-2-ethoxypropyl-4-isothiazolin-3-one, 4,5-dichloro-2-butoxypropyl-4-isothiazolin-3-one, 4,5-dichloro-2-methoxyethoxypropyl-4-isothiazolin-3-one, or 4,5-dichloro-2-chlorophenoxyethoxypropyl-4-isothiazolin-3-one, a considerable experimental results are also received, which are shown in the following table.

staphylococcus aureus = assay: as above; assay type: cell-based; conditions: 24 hours, 37° C.
Description: as §1, §2

coliform bacteria = assay: as above; assay type: cell-based; conditions: 10^7 cfu/ml, 24 hours, 37° C.
Description: as §1

heterotrophic bacteria = assay: sterilization test in industrial cooling (circulating) water system; conditions: for control and sterilization of microorganism in industry cooling water (in words): industrial cooling water; for the amount of the heterotrophic bacteria, virtual result / the rate of sterilization: 50 mg/L medicament
Source text: The compound of the present invention may be used to control and sterilize alga, fungi and bacteria in the industrial cooling water system. First, chlorine was stopped adding into the circulating water system for 3 days before administration. The total amount of the heterotrophic bacteria in the circulating water was raised, and then the 4,5-dichloro-2-methoxyethoxypropyl-4-isothiazolin-3-one was thrown in, while the discharge of the water was stopped. The amount of the heterotrophic bacteria in water and the sterilization rate was measured at 4 hours, 12 hours, 24 hours, 36 hours after the medicament was added.

leaf spot of beet = assay: drug action and field test against leaf spot of beet; assay type: in vivo
Source text: Otherwise, it has also a good prevent function to the apple ring rot, tomato gray mold and cotton soreshin. For example, when the 4,5-dichloro-2-isopropoxypropyl-4-isothiazolin-3-one is used as bactericide, it is merely required 39 g pure medicament per mu ( 1/15 of a hectare) with the concentration of 250 ppm to control the leaf spot of bee, and the efficiency of the prevention and cure is up to 75.0%.

Structure (SMILES): CCCCOCCCn1sc(Cl)c(Cl)c1=O
- lowest bacteriostasis concentration (saccharomyces cerevisiae): 4 µg/mL
- lowest bacteriostasis concentration (staphylococcus aureus): 8 µg/mL
- lowest bacteriostasis concentration (coliform bacteria): 4 µg/mL
- control and sterilization of microorganism in industry cooling water (in words) (heterotrophic bacteria): controlled and sterilized effectively

Structure (SMILES): COCCCn1sc(Cl)c(Cl)c1=O
- lowest bacteriostasis concentration (saccharomyces cerevisiae): 16 µg/mL
- lowest bacteriostasis concentration (staphylococcus aureus): 32 µg/mL
- lowest bacteriostasis concentration (coliform bacteria): 4 µg/mL
- control and sterilization of microorganism in industry cooling water (in words) (heterotrophic bacteria): controlled and sterilized effectively

Structure (SMILES): O=c1c(Cl)c(Cl)sn1CCCOCCOc1ccc(Cl)cc1 [4,5-dichloro-2-chlorophenoxyethoxypropyl-4-isothiazolin-3-one]
- lowest bacteriostasis concentration (saccharomyces cerevisiae): 8 µg/mL
- lowest bacteriostasis concentration (staphylococcus aureus): 16 µg/mL
- lowest bacteriostasis concentration (coliform bacteria): 8 µg/mL

Structure (SMILES): COC(COC(C)Cn1sc(Cl)c(Cl)c1=O)OC (centres unmarked) [4,5-dichloro-2-dimethoxyethoxypropyl-4-isothiazolin-3-one]
- effect of the prevention and cure (in words) (leaf spot of beet): considerable effect of the prevention and cure

Structure (SMILES): CCOCCCn1sc(Cl)c(Cl)c1=O [4,5-dichloro-2-ethoxypropyl-4-isothiazolin-3-one]
- lowest bacteriostasis concentration (saccharomyces cerevisiae): 8 µg/mL
- lowest bacteriostasis concentration (staphylococcus aureus): 16 µg/mL
- lowest bacteriostasis concentration (coliform bacteria): 4 µg/mL
- effect of the prevention and cure (in words) (leaf spot of beet): considerable effect of the prevention and cure
- control and sterilization of microorganism in industry cooling water (in words) (heterotrophic bacteria): controlled and sterilized effectively

Structure (SMILES): CC(C)OCCCn1sc(Cl)c(Cl)c1=O [4,5-dichloro-2-isopropoxypropyl-4-isothiazolin-3-one]
- lowest bacteriostasis concentration (saccharomyces cerevisiae): 8 µg/mL
- lowest bacteriostasis concentration (staphylococcus aureus): 16 µg/mL
- lowest bacteriostasis concentration (coliform bacteria): 8 µg/mL
- effect of the prevention and cure (in words) (leaf spot of beet): considerable effect of the prevention and cure
- efficiency of the prevention and cure (leaf spot of beet; 39 g pure medicament per mu, 250 ppm): up to 75.0%
- control and sterilization of microorganism in industry cooling water (in words) (heterotrophic bacteria): controlled and sterilized effectively

Structure (SMILES): COCCOCCCn1sc(Cl)c(Cl)c1=O [4,5-dichloro-2-methoxyethoxypropyl-4-isothiazolin-3-one]
- lowest bacteriostasis concentration (saccharomyces cerevisiae): 16 µg/mL
- lowest bacteriostasis concentration (staphylococcus aureus): 16 µg/mL
- lowest bacteriostasis concentration (coliform bacteria): 16 µg/mL
- effect of the prevention and cure (in words) (leaf spot of beet): considerable effect of the prevention and cure
- the amount of the heterotrophic bacteria, virtual result (heterotrophic bacteria; 4 h after addition): 2.0 × 10^5 number/mL
- the rate of sterilization (heterotrophic bacteria; 4 h after addition): 99.33%
- the amount of the heterotrophic bacteria, virtual result (heterotrophic bacteria; 12 h after addition): 4.0 × 10^4 number/mL
- the rate of sterilization (heterotrophic bacteria; 12 h after addition): 99.87%
- the amount of the heterotrophic bacteria, virtual result (heterotrophic bacteria; 24 h after addition): 3.0 × 10^4 number/mL
- the rate of sterilization (heterotrophic bacteria; 24 h after addition): 99.90%
- the amount of the heterotrophic bacteria, virtual result (heterotrophic bacteria; 36 h after addition): 3.3 × 10^4 number/mL
- the rate of sterilization (heterotrophic bacteria; 36 h after addition): 99.89%
